Data taken from US5321043A, “Method of combatting transplant rejection” (The University of Melbourne, priority 1992, dated 1994).

System: MLC response of responder lymphocytes to irradiated EBV-transformed lymphoblastoid cells
Assay: Mixed lymphocyte culture (MLC) suppression by CyA and PG analogues, alone and combined (tritiated thymidine uptake)
Assay type: cell-based, human
Conditions: for Suppression of MLC responses, mean % decrease of cpm vs drug-free cultures: mean of five donors
Method: Heparinised blood was obtained from five healthy donors without history of previous blood transfusion, pregnancy, or organ transplantation.
Prostaglandin (PG) analogues PGE1, PGE2, PGF2a, and PGI2 were supplied by the Upjohn Company (Kalamazoo, Mich.) in the form of 15-(s)-15-methyl PGE1, 16,16-dimethyl PGE2, 16,16-dimethyl PGF2α, and 9-deoxy-2,9a-methano-3-oxa-4,5,6-trinor-3,7-(1', 3'-interphenylene)-13,14'-dihydroprostaglandin FI (Compound A). Each was provided in methyl acetate at 10 mg/mL that was subsequently diluted, first with ethyl alcohol to a concentration of 1 mg/mL and thereafter with physiological saline to the concentration range required for the study, 10.0-0.001 μg/mL.
Responder lymphocytes were isolated from the healthy donor heparinised blood by density gradient separation and suspended in glutamine, antibiotic-supplemented RPMI medium containing 10% autologous responder lymphocyte donor serum at a concentration of 1 ×10^6 cells/mL. The stimulator population consisted of Epstein-Barr virus (EBV)-transformed lymphoblastoid cells that were irradiated (130 Gy) before suspension also at 1×10^6 cells/mL in glutamine, antibiotic-supplemented RPMI medium that contained 10% autologous responder lymphocyte donor serum.
Equal volumes (0.1 mL) of responder and stimulator cells were incubated in triplicate wells of microtitre trays with each of the following:
Following incubation at 37° C. (5% CO2) for 4 days, […] of tritiated thymidine was added to all cultures before further incubation for 6-8 hours, after which cells were automatically harvested (Skatron, Liebyen, Norway) on Titertek filter paper (Flow Laboratories, Irvine, Scotland) that was placed in vials containing liquid scintillation fluid for counting in a Beckman beta counter (Beckman, Brea, Calif.).

For CCCCC(C)(C)[C@H](O)/C=C/[C@H]1[C@H](O)CC(=O)[C@@H]1C/C=C\CCCC(=O)O [PGE2, 16,16-dimethyl PGE2], the “Suppression of MLC responses by CyA in combination with PG analogue” value (“Suppression … with PG analogue” for short) (PG analogue 0.01 μg/mL + CyA 0.001 μg/mL) was 23%, the “Suppression … with PG analogue” value (PG analogue 0.01 μg/mL + CyA 0.01 μg/mL) was 49% and the “Suppression … with PG analogue” value (PG analogue 0.01 μg/mL + CyA 0.1 μg/mL) was 55%. The “Suppression … with PG analogue” value (PG analogue 0.01 μg/mL + CyA 1.0 μg/mL) was 63%, the “Suppression … with PG analogue” value (PG analogue 0.01 μg/mL + CyA 10.0 μg/mL) was 68% and the “Suppression … with PG analogue” value (PG analogue 0.1 μg/mL + CyA 0.001 μg/mL) was 26%. The “Suppression … with PG analogue” value (PG analogue 0.1 μg/mL + CyA 0.01 μg/mL) was 52%, the “Suppression … with PG analogue” value (PG analogue 0.1 μg/mL + CyA 0.1 μg/mL) was 58% and the “Suppression … with PG analogue” value (PG analogue 0.1 μg/mL + CyA 1.0 μg/mL) was 66%. The “Suppression … with PG analogue” value (PG analogue 0.1 μg/mL + CyA 10.0 μg/mL) was 70%, the “Suppression … with PG analogue” value (PG analogue 1.0 μg/mL + CyA 0.001 μg/mL) was 58% and the “Suppression … with PG analogue” value (PG analogue 1.0 μg/mL + CyA 0.01 μg/mL) was 56%. For the same molecule, the “Suppression … with PG analogue” value (PG analogue 1.0 μg/mL + CyA 0.1 μg/mL) was 67%, the “Suppression … with PG analogue” value (PG analogue 1.0 μg/mL + CyA 1.0 μg/mL) was 80% and the “Suppression … with PG analogue” value (PG analogue 1.0 μg/mL + CyA 10.0 μg/mL) was 85%. For the same molecule, the “Suppression … with PG analogue” value (PG analogue 10.0 μg/mL + CyA 0.001 μg/mL) was 60%, the “Suppression … with PG analogue” value (PG analogue 10.0 μg/mL + CyA 0.01 μg/mL) was 71% and the “Suppression … with PG analogue” value (PG analogue 10.0 μg/mL + CyA 0.1 μg/mL) was 72%. For the same molecule, the “Suppression … with PG analogue” value (PG analogue 10.0 μg/mL + CyA 1.0 μg/mL) was 88%, the “Suppression … with PG analogue” value (PG analogue 10.0 μg/mL + CyA 10.0 μg/mL) was 86% and the “decrease in PG analogue concentration necessary for 50% MLC suppression when combined with CyA vs alone” value (combination with CyA) was 100 fold. For the same molecule, the “Suppression of MLC responses, mean % decrease of cpm vs drug-free cultures” value (single agent at 0.001 μg/mL) was 6%, the “Suppression of MLC responses, mean % decrease of cpm vs drug-free cultures” value (single agent at 0.01 μg/mL) was 18% and the “Suppression of MLC responses, mean % decrease of cpm vs drug-free cultures” value (single agent at 0.1 μg/mL) was 32%. For the same molecule, the “Suppression of MLC responses, mean % decrease of cpm vs drug-free cultures” value (single agent at 1.0 μg/mL) was 51%, the “Suppression of MLC responses, mean % decrease of cpm vs drug-free cultures” value (single agent at 10.0 μg/mL) was 58% and the “times more effective in suppressing the MLC response than the PGF2a analogue” value (single agents) was 10 times.
